Biological target: Indoleamine 2,3-dioxygenase 1 (Homo sapiens, UniProt P14902)
Test: Enzyme Inhibition Assay
Conditions: pH 6.5; 37 °C
Protocol: The IC50 inhibition assays were performed in a 96-well microtiter plate format using purified recombinant IDO, which was added to the substrate, L-tryptophan (L-Trp), and the inhibitor. After the reaction, the product N-formylkynurenine was converted to kynurenine. The yellow color generated from reaction with kynurenine was measured at 490 nm using a microtiter plate reader. The data were analyzed using Graph Pad Prism 4 software (Graph Pad Software Inc.).

Indoleamine 2,3-dioxygenase 1, sequence (P14902 whole entry): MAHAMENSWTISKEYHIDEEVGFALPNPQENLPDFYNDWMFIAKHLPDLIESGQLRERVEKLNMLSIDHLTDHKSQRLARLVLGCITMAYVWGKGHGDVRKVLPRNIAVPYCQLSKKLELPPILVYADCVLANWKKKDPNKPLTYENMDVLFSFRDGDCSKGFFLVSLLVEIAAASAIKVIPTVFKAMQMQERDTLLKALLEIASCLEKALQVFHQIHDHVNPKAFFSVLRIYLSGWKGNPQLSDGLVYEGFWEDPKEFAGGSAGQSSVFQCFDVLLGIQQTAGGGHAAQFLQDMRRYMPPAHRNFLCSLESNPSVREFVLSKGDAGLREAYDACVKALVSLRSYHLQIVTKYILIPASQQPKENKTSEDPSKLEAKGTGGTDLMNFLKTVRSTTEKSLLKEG

| Structure (SMILES) | IC50 [µM] |
| --- | --- |
| O=C1CC(=O)c2ccccc2C1=O | 675 |
| CC1=CC(=O)c2ccccc2C1=O [Vitamin K3] | 1.1 |

Source: BindingDB's records for doi:10.1021/jm7014155 (Bryn Mawr College, 2008)
